Source: patent US20080206198A1, “Compounds and methods for pharmico-gene therapy of epithelial sodium channel associated disorders” (priority 2003, published 2008)

Key:
mouse lung = assay: Intranasal AAV2-Luc with anthracyclines in Balb/c mice (lung luciferase); format: in vivo; settings: 10% HDE intranasal, day 7
Text: Animals were followed for seven days post dose.
The dose of modulator was based on the Human Dose Equivalent (HDE) and is summarized below in Table 4. For intranasal dose administration, the dose was held constant at 10% of the HDE.
On the day of sacrifice, the left lung was clamped off at the level of the extrapulmonary bronchi, removed and frozen on dry ice. The left lung was homogenized and processed for luciferase expression using Promega's luciferase assay system (Madison, Wis.). Luminescence was measured using the Berthold AutoLumat LB953 instrument. Samples were normalized for total protein using Pierce's Coomassie Plus Protein Assay Reagent (Rockford, Ill.).

Solubility in ethanol = format: physicochemical

Compound | luciferase expression, Average (mouse lung; both sexes) | luciferase expression, Average (mouse lung; female) | luciferase expression, Average (mouse lung; male) | solubility in ethanol (Solubility in ethanol)
COc1cccc2c1C(=O)c1c(O)c3c(c(O)c1C2=O)C[C@@](O)(C(=O)CO)C[C@@H]3O[C@H]1C[C@H](N)[C@H](O)[C@H](C)O1 [doxorubicin] | 1.77E+06 | 5.44E+05 | *4.21E+06 | –
N-acetyl-L-leucinyl-L-leucinal-L-norleucinal [LLnL] | – | – | – | poor solubility
